PMC10076671, “Spider venom-derived peptide JZTX-14 prevents migration and invasion of breast cancer cells via inhibition of sodium channels” (Frontiers in Pharmacology, 2023)
Entries after “also recorded” stand apart in the source; their conditions may differ. Like-named read-outs stand apart in the source and are kept apart here. Where a SMILES comes first, the peptide text is derived from it. Bridges are numbered along the chain shown (N, C = ends).

Experiments:
[1] = system: MDA-MB-231 cells; assay: Transwell assay (cell migration/invasion); assay type: cell-based, human; conditions: 24 h incubation, crystal violet staining
Protocol: Cell migration assay was performed using 24-well transwell plate (Corning, United States). 5×10^4 cells/well were seeded in the upper chamber in DMEM/F12 medium containing 0.1% BSA, the lower chamber contained DMEM/F12% and […]. After 24 h incubation, the cells on the filter membrane were washed three times with PBS, then fixed with 4% paraformaldehyde for 30 min and stained with 0.1% crystal violet for 20 min. The cells on the filter were observed by microscopy and the number of cells was determined using the quantification software ImageJ.

[2] = system: MDA-MB-231 cells; assay: Hoechst 33342/PI double staining assay; assay type: cell-based, human; conditions: 0, 6, 12.5 μM; 48 h
Protocol: The cells were seeded in a 6-well plate, and after their adherence to the plate, the medium was changed with a complete medium containing different concentrations of inhibitors. After 48 h of treatment, the cells were washed three times with 4°C cold PBS, and incubated with 5 μl/ml Hoechst 33,342 for 15 min. The cells were washed again three times using PBS and incubated with 5 μl/ml PI for 15 min.

[3] = system: Nav1.5; assay type: cell-based; conditions: 50 ms depolarisation to −30 mV, holding potential −100 mV, room temperature (22°C–25°C), mean ± SEM
Protocol: Sodium currents in experimental cells were recorded at room temperature (22°C–25°C) using an EPC-10 patch-clamp amplifier (HEKA, Germany) in a whole-cell patch-clamp configuration. Recording pipettes were made from borosilicate glass capillaries (VWR, United States) using a PC-10 puller (Narishige, Japan). The inner solution (mM): KCl 130, NaCl 15, CaCl2 0.37, MgCl2 1 EGTA 1, HEPES 10, pH 7.2, resistance was measured as 1.8 MO. The outer solution was composed of (mM): NaCl 140, KCl 3, MgCl2 1, CaCl2 1, HEPES 10, pH 7.2. To minimize voltage errors, the series resistance compensation was set to 80%. The P/4 protocol was used to subtract the linear capacitance and leakage current. Experimental data were acquired and analyzed using the pulse fit 8.0 program (HEKA, Germany). The needed concentrations of toxin dissolved in external solution were applied to the cell surface by microinjector.
To determine the biological activity of synthetic and natural JZTX-14 on Nav1.5, we observed their effects on HEK293T cells heterologously expressing Nav1.5 using a whole-cell voltage-clamp configuration. The current traces were induced by a 50 ms depolarisation potential of −30 mV at a holding potential of −100 mV. Currents were recorded by adding 0.1 μM and 0.5 μM of JZTX-14 to the solution.

[4] = system: MDA-MB-231 cells; assay: Quantitative real-time PCR validation of migration and invasion-related genes; assay type: cell-based, human; conditions: JZTX-14-treated MDA-MB-231 cells
[5] = system: MDA-MB-231 cells; assay: Scratch wound assay (cell migration); assay type: cell-based, human; conditions: 12.5 μM, DMEM/F12 containing 0.2% BSA
Protocol: The MDA-MB-231 cells were seeded into a six-well plate at an appropriate density to form a single layer of cells. After 12 h, a sterile 200 μl pipette tip was used to produce a linear scraping wound, which was cultured with DMEM/F12 containing 0.2% BSA and different concentrations of inhibitors. The cells were imaged at 0 h, 24 h and 48 h, after scratch induction. ImageJ software was used to analyze the images and quantify cell migration.

[6] = system: Nav1.5; conditions: HEK293 cells heterologously expressing Nav1.5; ref Zhang et al., 2018; cited from earlier work
[7] = system: MDA-MB-231 cells; assay: RNA sequencing, differentially expressed genes; assay type: cell-based, human; conditions: 12.5 μM, 48 h
Protocol: Total RNA was extracted from untreated (C) MDA-MB-231 cells and MDA-MB-231 cells treated with a concentration of 12.5 μM JZTX-14 (GL) for 48 h using TRIzol reagent. RNA concentration was first quantified using a NanoDrop 2000 spectrophotometer and further accurately quantified using an Agilent 2100/4200 for RNA sample mass and concentration. The extracted total RNA was stored at −70°C. The sample mRNA was enriched with magnetic beads with Oligo (dT), and then the mRNA was broken into short fragments which subsequently used as a template to synthesize the first strand of cDNA with six-base random primers. The second cDNA strand was synthesized by adding buffer, dNTPs, and enzymes, and the acquired double-stranded cDNA was purified, end-repaired, A-tailed, and connected to sequencing junctions. Next, the fragment size was selected and the cDNA library was enriched by PCR amplification, followed by accurate qualification of the effective concentration of the library using qPCR. […]
The reads after rRNA removal were compared with the reference genome using Hisat2 software. Gene level quantification was performed separately for each sample using FeatureCount and combined to obtain the gene expression matrix of all samples. Correlation coefficients between samples were calculated based on the expression values (FPKM) of genes in each sample. […]

[8] = system: MDA-MB-231 cells; assay: CCK-8 cell proliferation assay; assay type: cell-based, human
[9] = system: MDA-MB-231 cells; assay: Western blot analysis of EMT markers; assay type: cell-based, human; conditions: compared to controls
Protocol: Cells treated with different concentrations of JZTX-14 were lysed with RIPA lysis solution and samples were collected. Protein concentrations were determined by BCA assay kit (Biosharp, China) and denatured by adding SDS loading buffer (Bio-Bad, United States) followed by boiling. Equal amounts of total protein lysates were subjected to SDS-PAGE and transferred to PVDF membrane (Merck Millipore, United States), 5% BSA was used for blocking (1 h). Primary antibody (Nav1.5, E-cadherin, GAPDH and Vimentin antibody for Proteintech; N-cadherin for Immunoway) was incubated overnight at 4°C, secondary antibody (Abbkine, China) was incubated for 1 h at room temperature and the membrane was visualized by chemiluminescence.

CC[C@H](C)[C@H](NC(=O)[C@@H]1CSSC[C@@H]2NC(=O)[C@@H]3CCCN3C(=O)[C@@H]3CCCN3C(=O)[C@H](CCC(N)=O)NC(=O)CNC(=O)[C@@H]3CCCN3C(=O)[C@H](Cc3c[nH]cn3)NC(=O)[C@@H]3CSSC[C@H](NC(=O)[C@H](C)NC(=O)[C@H](CC(C)C)NC(=O)CNC(=O)[C@H](CO)NC(=O)[C@H](CSSC[C@H](NC(=O)CN)C(=O)N[C@@H](CCC(N)=O)C(=O)N[C@@H](CCCCN)C(=O)N[C@@H](Cc4ccccc4)C(=O)N[C@@H](Cc4ccccc4)C(=O)N[C@@H](Cc4c[nH]c5ccccc45)C(=O)N[C@@H]([C@@H](C)O)C(=O)N3)NC2=O)C(=O)N[C@@H]([C@@H](C)O)C(=O)N[C@@H](Cc2c[nH]c3ccccc23)C(=O)N2CCC[C@H]2C(=O)N[C@@H]([C@@H](C)O)C(=O)N[C@@H](CCC(=O)O)C(=O)N[C@@H]([C@@H](C)CC)C(=O)N1)C(=O)N[C@@H](CC(C)C)C(N)=O [JZTX-14] (H-GCQKFFWTCHPGQPPCCSGLACTWPTEICIL-NH2; disulfide 2-17, 9-22, 16-29)
Inhibition of cell invasion (transwell) ([1]; 6 μM): 50% | Inhibition of cell invasion (transwell) ([1]; 12.5 μM): 75% | Apoptosis and necrosis (Hoechst 33342/PI staining) [2]: no apoptosis and necrosis; also recorded: no significant effect on the necrosis | Inhibition of Nav1.5 current ([3]; 0.1 μM, listed as Synthetic JZTX-14, 0.1 µM): 30.3% ± 2.5% | Inhibition of Nav1.5 current ([3]; 0.5 μM, listed as Synthetic JZTX-14, 0.5 µM): 53.4% ± 2.5% | ANGPTL4 expression (qPCR) [4]: downregulated | FBXO2 expression (qPCR) [4]: downregulated | GJB3 expression (qPCR) [4]: downregulated | HMGN5 expression (qPCR) [4]: downregulated | IL-24-F expression (qPCR) [4]: upregulated | PLAC1 expression (qPCR) [4]: downregulated | S100A4 expression (qPCR) [4]: downregulated | SERPINB2 expression (qPCR) [4]: upregulated | Inhibition of migration (scratch assay) ([5]; 24 h): 72% | Inhibition of migration (scratch assay) ([5]; 48 h): 80% | Inhibition of Nav1.5 function [6]: effectively inhibits | Downregulated genes associated with migration and invasion [7]: ANGPTL4, S100A4, GJB3, FBXO2, PLAC1, and HMGN5 | Upregulated genes associated with migration and invasion [7]: IL-24-F and SERPINB2 | Cell survival rate (CCK-8) ([8]; 1.5, 3, 6, 12.5, 25, 50, and 100 μM, 24 h, OD 450 nm): did not affect the survival rate | Cell survival rate (CCK-8) ([8]; 25, 50, and 100 μM, 48 h, not statistically different compared to the control group): slightly reduced the survival rate | E-cadherin expression level (western blot) ([9]; epithelial marker): significantly increased | MMP2 expression level (western blot) ([9]; matrix metalloproteinase): decreased | N-cadherin expression level (western blot) ([9]; mesenchymal marker): decreased | Vimentin expression level (western blot) ([9]; mesenchymal marker): decreased
